Test results as given in paper PMC10146949, “Cytotoxicity Profiles and Neuroprotective Properties of the Novel Ifenprodil Analogues as Sigma Ligands” (Molecules, 2023).
Values after ≈ are worked out from the molar mass of the structure shown. Like-named read-outs stand apart in the source and are kept apart here.

How the values were obtained:
S2R [1] = target: T1, S2R (Rattus norvegicus, UniProt Q5U3Y7); experiment: S2R radioligand binding assay, [3H]DTG, rat liver membranes
T1 construct: A few rat livers were homogenized in cold 0.32 M sucrose with a Potter-Elvehjem glass homogenizer; tissue ENVIGO RMS S.R.L., Udine, Italy (animals); host or cells: Sprague Dawley rat liver membranes
T1 sequence (Q5U3Y7 1-176): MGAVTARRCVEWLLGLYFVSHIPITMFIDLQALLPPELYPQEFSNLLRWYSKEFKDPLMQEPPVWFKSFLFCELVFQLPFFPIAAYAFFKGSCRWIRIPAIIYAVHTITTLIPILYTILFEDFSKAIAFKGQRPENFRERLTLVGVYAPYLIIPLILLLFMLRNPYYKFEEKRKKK

[2] = tested on: SOD1 gene expression in SH-SY5Y cells; experiment: Real-Time PCR of SOD1 mRNA levels; conditions: 12.5 µM, 12 h; for effect on SOD1 expression (in words): vs DMSO
Procedure: (§1) Total RNA (500 ng) was primed with hexameric random primers and retrotranscribed into cDNA with M-MLV reverse transcriptase (Thermo Fisher Scientific, Waltham, MA, USA). The normalization of targets’ gene expression was performed against the housekeeping gene RPL13A. Real-Time PCRs were performed by using iQ SYBR Green Supermix and CFX96 Real-Time PCR detection system (Bio-Rad Laboratories, Redmond, WA, USA). The relative expression levels were calculated using the 2^−∆∆CT method. An unpaired T-test was used to determine statistical significance. Values are presented as mean and error bars indicate standard errors (SE). The results are representative of two independent experiments in triplicate.

S1R [3] = target: T2, S1R (Cavia porcellus, UniProt Q60492); experiment: S1R radioligand binding assay, [3H](+)-pentazocine, guinea pig brain cortex homogenates; conditions: for S2R/S1R selectivity ratio: ratio of Ki S2R to Ki S1R
T2 construct: Fresh guinea pig brain cortex was homogenized in ice-cold Tris (50 mM, pH 7.4); tissue ENVIGO RMS S.R.L., Udine, Italy (animals); host or cells: male Dunkin-Hartley guinea pig brain cortex membranes
T2 sequence (Q60492 whole entry): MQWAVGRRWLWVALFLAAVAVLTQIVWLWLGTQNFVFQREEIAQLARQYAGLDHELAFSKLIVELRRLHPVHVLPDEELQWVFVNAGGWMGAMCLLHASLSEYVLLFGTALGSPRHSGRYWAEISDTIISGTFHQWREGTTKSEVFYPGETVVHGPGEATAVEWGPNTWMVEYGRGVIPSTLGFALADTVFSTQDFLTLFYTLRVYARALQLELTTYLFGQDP
Procedure: The bound radioactivity has been determined using a Beckman LS 6500 liquid scintillation counter (Beckman Coulter, Brea, CA, USA).
The test compound solutions were prepared by dissolving approximately 10 µmol of the test compound in DMSO to obtain a 10 mM stock solution.
Fresh guinea pig brain cortex was homogenized in ice-cold Tris (50 mM, pH 7.4) containing cold 0.32 M sucrose with a Potter-Elvehjem glass homogenizer. […] The final pellet was resuspended in ice-cold Tris buffer, and frozen at −80 °C. The protein concentration was determined by the method of Bradford [42].
Bound and free radioligand were separated by fast filtration under reduced pressure using a Millipore filter apparatus through Whatman GF 6 glass fiber filters, which were presoaked in a 0.5% poly(ethyleneimine) water solution for 120 min. Each filter paper was rinsed three times with 3 mL of ice-cold Tris buffer (50 mM, pH 7.4), dried at room temperature, and incubated overnight with 3 mL of Ultima Gold MV Scintillation cocktail into pony vials.
The Ki-values were calculated with the program GraphPad Prism® 6.0 (GraphPad Software, San Diego, CA, USA). The Ki-values are given as the mean value ± SD from at least two independent experiments performed in duplicate.

[4] = tested on: NRF2 gene expression in SH-SY5Y cells; experiment: Real-Time PCR of NRF2 mRNA levels; conditions: 12.5 µM, 12 h; for effect on NRF2 expression (in words): vs DMSO
Procedure: as §1

[5] = Hydrogen peroxide scavenging; conditions: H2O2 2 mM, 230 nm
[6] = Cytotoxicity, resazurin cell viability test; format: cell-based, human; conditions: human
Procedure: (§2) Cell viability was tested by using Resazurin (SERVA Electrophoresis GmbH, Heidelberg, Germany), which in metabolically active cells is reduced to Resufurin, a redox indicator, whose fluorescence is proportional to the number of live cells [43, 44].
(§3) The percentage of viability was calculated after subtraction of the background (obtained by killing the cells), on the basis of the ratio between the fluorescence values of the cells incubated with a compound and the fluorescence values of cells incubated with the solvent (1% DMSO). The viability of cells incubated with 1% DMSO was considered to be equivalent to 100%.
(§4) The statistical analysis was carried out with GraphPad Prism® 6.0 (GraphPad Software, Inc, La Jolla, CA, USA) software using an unpaired t-test. p < 0.05 was considered statistically significant. Cytotoxicity concentrations (IC50s) were determined from dose-response curves analyzed by using GraphPad Prism software.

ABTS radical scavenging = conditions: ABTS 7 mM ethanolic, 45 min, 735 nm
Procedure: The compounds’ antioxidant capacity was evaluated by bleaching the green colored ethanolic solution of ABTS [41]. Test compounds (300 μL) were diluted as follows: 0.01, 0.025, 0.05, 0.1, and 0.2 mg/mL and added to 2.7 mL of ethanolic solution of ABTS (7 mM). These mixtures were incubated for 45 min at room temperature, and the absorbances were recorded at λ = 735 nm against the ABTS solution. The results were obtained as the percent of inhibition (% IC) of ABTS radical, calculated by the following formula. % IC = [(Abs ABTS − Abs Sample)/Abs ABTS] × 100
Data were expressed as mean value ± SD, and the assay was performed in triplicate.
The % IC was used to determine the IC50 values.

S1R [7] = conditions: cited from earlier work
SH-SY5Y cells = experiment: Cytotoxicity, resazurin cell viability test; format: cell-based, human
Procedure: as §2, §3, §4

S1R [8] = experiment: S1R affinity taken from the literature; format: binding; conditions: ifenprodil, from literature Ki values
Excerpt: Table 2 Binding affinities towards S1R and S2R, for compounds 5a–o.

S2R [9] = target: S2R; parameters: method as in PMID 31319263; conditions: ifenprodil, Table 2 footnote b; cited from earlier work

Structure (SMILES)	Ki (S1R [3]) [µM]	IC50 H2O2 [5] [µg/mL]	Ki (S2R [1]; read-out: Ki S2R) [µM]	S2R/S1R selectivity ratio (S1R [3])	Ki (S1R [3]; read-out: Ki S1R) [µM]	also measured
COc1ccc(C(=O)C(C)N2CCN(Cc3ccccc3)CC2)cc1 (stereo not drawn) [5h, 2-(4-Benzylpiperazin-1-yl)-1-(4-methoxyphenyl)propan-1-one]	0.0014 ± 0.0002	466.24 ± 1.36 (≈ 1380 µM)	–	–	–	Ki (S2R [1]): 0.084 ± 0.031 µM; effect on SOD1 expression (in words) [2]: dramatically reduced; effect on NRF2 expression (in words) [4]: significant decrease; IC50 ([6]; SH-SY5Y cells): 117 µM
COc1ccc(C(O)C(C)N(C)CCCCc2ccccc2)cc1 (stereo not drawn) [5n, 1-(4-Methoxyphenyl)-2-(methyl(4-phenylbutyl)amino)propan-1-ol]	0.038 ± 0.009	–	0.479 ± 0.093	13	–	–
CC(C(=O)c1ccccc1)N(C)CCCCc1ccccc1 (stereo not drawn) [5c, 2-(Methyl(4-phenylbutyl)amino)-1-phenylpropan-1-one]	–	–	0.733 ± 0.106	0.15	4.72 ± 1.69	–
COc1ccc(C(=O)C(C)N(C)CCCCc2ccccc2)cc1 (stereo not drawn) [5g, 1-(4-Methoxyphenyl)-2-(methyl(4-phenylbutyl)amino)propan-1-one]	–	–	0.386 ± 0.11	3.3	0.117 ± 0.018	–
CC(C(=O)c1ccccc1)N1CCN(c2ccccc2)CC1 (stereo not drawn) [5b, 2-(4-Phenylpiperazin-1-yl)-1-phenylpropan-1-one]	–	–	0.158 ± 0.03	0.05	2.93 ± 1.15	melting point: 105 to 106 °C
Cc1c(C)c2c(c(C)c1O)CCC(C)(C(=O)O)O2 (stereo not drawn) [Trolox, 6-hydroxy-2,5,7,8-tetramethylchroman-2-carboxylic acid, reference compound]	–	15.69 ± 0.69 (≈ 62.7 µM)	–	–	–	IC50 ABTS (ABTS radical scavenging): 2.365 ± 0.19 µg/mL (≈ 9.45 µM)
CC(C(=O)c1ccc(O)cc1)N(C)CCCCc1ccccc1 (stereo not drawn) [5j, 1-(4-Hydroxyphenyl)-2-(methyl(4-phenylbutyl)amino)propan-1-one]	–	–	–	0.38	0.121 ± 0.022	Ki (S2R [1]): 0.045 ± 0.004 µM
CC(C(=O)c1ccc(O)cc1)N1CCN(c2ccccc2)CC1 (stereo not drawn) [5l, 2-(4-Phenylpiperazin-1-yl)-1-(4-hydroxyphenyl)propan-1-one]	–	–	0.147 ± 0.017	0.18	0.785 ± 0.226	melting point: 163 to 165 °C
COc1cc2c(cc1OC)C(=O)C(CC1CCN(Cc3ccccc3)CC1)C2 (stereo not drawn) [Donepezil]	–	–	–	–	–	Ki (S1R [7]; donepezil): 0.0146 µM
CC(C(=O)c1ccccc1)N1CCCN(Cc2ccccc2)CC1 (stereo not drawn) [5a, 2-(4-Benzyl-1,4-diazepan-1-yl)-1-phenylpropan-1-one]	0.069 ± 0.014	–	0.108 ± 0.021	1.6	–	–
COc1ccc(C(O)C(C)N2CCCN(Cc3ccccc3)CC2)cc1 (stereo not drawn) [5o, 2-(4-Benzyl-1,4-diazepan-1-yl)-1-(4-methoxyphenyl)propan-1-ol]	–	12.13 ± 0.25 (≈ 34.2 µM)	0.128 ± 0.026	32	0.0042 ± 0.0006	effect on SOD1 expression (in words) [2]: dramatically reduced; effect on NRF2 expression (in words) [4]: significant decrease; IC50 ABTS (ABTS radical scavenging): 2.481 ± 0.05 µg/mL (≈ 7 µM); IC50 ([6]; SH-SY5Y neuroblastoma cells): 118 µM
COc1ccc(C(=O)C(C)N2CCN(c3ccccc3)CC2)cc1 (stereo not drawn) [5f, 2-(4-Phenylpiperazin-1-yl)-1-(4-methoxyphenyl)propan-1-one]	–	–	0.989 ± 0.337	0.53	1.86 ± 0.987	melting point: 117 to 119 °C
O=C(CCCN1CCC(O)(c2ccc(Cl)cc2)CC1)c1ccc(F)cc1 [Haloperidol, reference compound]	–	–	–	–	–	effect on SOD1 expression (in words) [2]: did not cause significant changes; effect on NRF2 expression (in words) [4]: did not cause significant changes; IC50 ([6]; SH-SY5Y neuroblastoma cells): 23 µM
CC(C(=O)c1ccc(O)cc1)N1CCN(Cc2ccccc2)CC1 (stereo not drawn) [5k, 2-(4-Benzylpiperazin-1-yl)-1-(4-hydroxyphenyl)propan-1-one]	0.019 ± 0.002	436.43 ± 1.17 (≈ 1350 µM)	0.129 ± 0.023	6.8	–	effect on SOD1 expression (in words) [2]: dramatically reduced; effect on NRF2 expression (in words) [4]: significant decrease; melting point: 58 to 59 °C; IC50 ([6]; SH-SY5Y cells): 132 µM
CCCN(CCC)CCc1ccc(OC)c(OCCc2ccccc2)c1 [NE100, reference compound]	–	–	–	–	–	IC50 (SH-SY5Y cells): 49 µM
Fc1ccc(-n2cc(CCCCN3CCC4(CC3)OCc3ccccc34)c3ccccc32)cc1 [Siramesine, reference compound]	–	–	–	–	–	IC50 ([6]; SH-SY5Y neuroblastoma cells): 2 µM
CC(C(O)c1ccc(O)cc1)N1CCC(Cc2ccccc2)CC1 (stereo not drawn) [Ifenprodil]	–	–	–	–	–	S2R/S1R selectivity ratio (S1R [8]): 0.75; Ki (S1R [7]; ifenprodil, Table 2 footnote b): 0.125 ± 0.024 µM; Ki (S2R [9]): 0.098 ± 0.034 µM
COc1ccc(C(=O)C(C)N2CCCN(Cc3ccccc3)CC2)cc1 (stereo not drawn) [5e, 2-(4-Benzyl-1,4-diazepan-1-yl)-1-(4-methoxyphenyl)propan-1-one]	0.012 ± 0.002	12.65 ± 0.21 (≈ 35.9 µM)	–	8.1	–	Ki (S2R [1]): 0.097 ± 0.017 µM; effect on SOD1 expression (in words) [2]: did not significantly alter; effect on NRF2 expression (in words) [4]: did not change its expression significantly; IC50 ABTS (ABTS radical scavenging): 2.495 ± 0.09 µg/mL (≈ 7.08 µM); IC50 ([6]; SH-SY5Y cells): 74 µM
CC(C(=O)c1ccc(O)cc1)N1CCCN(Cc2ccccc2)CC1 (stereo not drawn) [5i, 2-(4-Benzyl-1,4-diazepan-1-yl)-1-(4-hydroxyphenyl)propan-1-one]	0.019 ± 0.003	13.11 ± 0.24 (≈ 38.7 µM)	–	1.1	–	Ki (S2R [1]): 0.022 ± 0.004 µM; effect on SOD1 expression (in words) [2]: did not significantly alter; NRF2 mRNA levels, fold increase compared to DMSO [4]: 2.8 fold; IC50 ABTS (ABTS radical scavenging): 2.603 ± 0.09 µg/mL (≈ 7.69 µM); IC50 ([6]; SH-SY5Y cells): 294 µM
CC(C(=O)c1ccccc1)N1CCN(Cc2ccccc2)CC1 (stereo not drawn) [5d, 2-(4-Benzylpiperazin-1-yl)-1-phenylpropan-1-one]	0.008 ± 0.001	14.56 ± 0.18 (≈ 47.2 µM)	0.302 ± 0.065	38	–	SOD1 mRNA levels, fold increase compared to DMSO [2]: 1.3 fold; NRF2 mRNA levels, fold increase compared to DMSO [4]: 1.7 fold; IC50 ABTS (ABTS radical scavenging): 2.854 ± 0.11 µg/mL (≈ 9.25 µM); IC50 ([6]; SH-SY5Y cells): 118 µM
CC(C(O)c1ccccc1)N(C)CCCCc1ccccc1 (stereo not drawn) [5m, 2-(Methyl(4-phenylbutyl)amino)-1-phenylpropan-1-ol]	0.037 ± 0.01	–	–	0.81	–	Ki (S2R [1]): 0.03 ± 0.008 µM
